Laboratory results taken from patent US20250312349A1, “COMPOSITION AND METHODS OF TREATING INTRACELLULAR PATHOGEN INFECTION” (UNIVERSITY HOSPITALS CLEVELAND MEDICAL CENTER, priority 2024, published 2025).

Columns and labels:
LC3 = assay: Immunofluorescence of LC3 accumulation around parasites; assay type: cell-based; settings: CHO cells and brain endothelial cells expressing DN EGFR, 1 μM, 5 hours
Protocol: FIGS. 3(A-L) illustrate images and graphs showing T. gondii killing induced by Src inhibition is mediated by autophagy. (A-C) CHO cells and primary brain endothelial cells expressing WT or DN EGFR were infected with RFP-T. gondii and treated with Saracatinib 1 μM for 5 hours before staining with an anti-LC3 antibody. Accumulation of LC3 around the parasites was assessed by confocal microscopy. Scale bar, 10 μm. (D-F) CHO cells and primary brain endothelial cells expressing WT or DN EGFR were infected with RFP-T. gondii and treated with Saracatinib 1 μM for 7 hours before staining with anti-LAMP1 antibody. Accumulation of LAMP1 around parasites was assessed as above. G-I) CHO cells and primary brain endothelial cells expressing WT or DN EGFR were transfected with control siRNA or ULK1 siRNA. Relative density of ULK1 was normalized to total Actin followed by normalization relative to Ctr siRNA. […] Cells were treated with or without Saracatinib and infected with RH T. gondii. Monolayers were examined at 24 h. […]
Mammalian cells were infected with RFP-T. gondii (RH) and fixed with 4% paraformaldehyde. […] LC3 and LAMP1 were evaluated for accumulation at 5- and 7 hours post-infection, respectively. […] Parasites were evaluated blindly in multiple random fields of view and 100 parasites were examined per group. […]

ME49 T. gondii = assay: Ocular and cerebral toxoplasmosis in Becn1+/+ and Becn1+/- mice; assay type: in vivo; settings: 10 mg kg-1, 2 weeks
PTEN [1] = assay: Immunoblot of PTEN phosphorylation in T. gondii-infected CHO cells; assay type: cell-based, Chinese Hamster; settings: lysates at 2 h
Protocol: (§1) Membranes were probed with antibodies against Src, phospho-Y416 Src, Akt, phospho-S473 Akt, PTEN, phospho-[…] PTEN, PI3K, phospho-Y458/Y199 PI3K, ULK1, EGFR, HA tag (all from Cell Signaling, Danvers, MA), phospho-Y240 PTEN (Sigma) and Actin (Santa Cruz Biotechnologies) followed by incubation with secondary antibodies (Cell Signaling and Santa Cruz Biotechnologies). Three independent experiments were performed.

Lek and Fyn in T cells = settings: cited from earlier work
PTEN [2] = assay: Confocal microscopy of PTEN and GRA7 around parasites in CHO cells; assay type: cell-based, Chinese Hamster; settings: RFP-T. gondii
Protocol: (§2) Mammalian cells were infected with RFP-T. gondii (RH) and fixed with 4% paraformaldehyde. Cells were stained with antibodies against LC3 (MBL International, Woburn, MA), LAMP1 (DSHB, Iowa City, IA), or GRA7 (gift from John Boothroyd, Stanford University, Stanford, CA) followed by a fluorescently conjugated secondary antibodies (Jackson ImmunoResearch Laboratories, West Grove, PA). LC3 and LAMP1 were evaluated for accumulation at 5- and 7 hours post-infection, respectively. Cells were stained with antibodies against PTEN (Santa Cruz Biotechnology, Dallas, TX) or anti-phospho S473 Akt (Novus, Centennial, CO). Frozen brain sections were stained with antibodies against PTEN (Novus, Centennial, CO), phospho S473 Akt, SAG-1 (Invitrogen, Waltham, MA) or T. gondii (Biogenex, Fremont, CA). Parasites were evaluated blindly in multiple random fields of view and 100 parasites were examined per group. In-out assays were performed as described using RFP-T gondii, anti-SAG-1 antibody (Invitrogen, Waltham, MA) and an Alexa Fluor 488-conjugated secondary antibody. Olympus FV1200 confocal microscope (Evident/Olympus, Waltham, MA) equipped with UPlanSApa 60× and 100× 1.45NA objectives was used to evaluate the slides.

phospho-S473 Akt = assay: Confocal microscopy of phospho-S473 Akt accumulation around parasites in CHO cells; assay type: cell-based, Chinese Hamster; settings: RFP-T. gondii
Protocol: as §2

EGS T. gondii cysts = assay: Parasite cysts in CHO cells infected with EGS T. gondii; assay type: cell-based, Toxoplasma gondii; settings: Saracatinib 1 μM, 4 days
Excerpt: We infected CHO cells with EGS T. gondii, a strain of the parasite that spontaneously form cysts in vitro.

PI3K = assay: Immunoblot of phospho-Y199 PI3K in T. gondii-infected CHO cells; assay type: cell-based, Chinese Hamster; settings: lysates at 2 h
Protocol: as §1

T. gondii [3] = assay: In-out assay of parasite invasion of host cells (SAG1 staining); assay type: cell-based, Toxoplasma gondii; settings: CHO cells, 1 μM, RH-RFP T. gondii, 2 hours
Protocol: (A) CHO cells were treated with Saracatinib (1 μM) and infected with RH-RFP T. gondii for 2 hours. Cells were fixed with Paraformaldehyde (PFA) and were not permeabilized prior to staining with a tachyzoite marker, SAG1. […] will express red fluorescence while extracellular parasites stain for SAG1 and appear green or yellow in color. Data are shown as mean±SEM. The graphs show data from 7 independent monolayers pooled from 2 different experiments. (B) CHO cells were treated with Saracatinib (1 μM) and infected with RH-RFP T. gondii for 24 hours. Number of tachyzoites per vacuole were determined by light microscopy and quantified as percentage of total vacuoles. Data are shown as mean±SEM. The graphs show data from 6 independent monolayers pooled from 3 different experiments. […] (PDF)
Mammalian cells were infected with RFP-T. gondii (RH) and fixed with 4% paraformaldehyde. Cells were stained with antibodies against LC3 (MBL International, Woburn, MA), LAMP1 (DSHB, Iowa City, IA), or GRA7 (gift from John Boothroyd, Stanford University, Stanford, CA) followed by a fluorescently conjugated secondary antibodies (Jackson ImmunoResearch Laboratories, West Grove, PA). LC3 and LAMP1 were evaluated for accumulation at 5- and 7 hours post-infection, respectively. […] Parasites were evaluated blindly in multiple random fields of view and 100 parasites were examined per group. […]

T. gondii [4] = assay: In vitro infection of mammalian cells with T. gondii tachyzoites, counted by light microscopy; assay type: cell-based, Toxoplasma gondii
Protocol: Chinese Hamster Ovary (CHO; a gift from Cathleen Carlin, Case Western Reserve University), human retinal pigment epithelial (RPE) cells (ARPE-19; American Type Culture Collection, ATCC, Manassas, VA), and mouse endothelial […]) transduced with Src shRNA or control encoding lentiviral vectors were cultured in complete media. Mouse brain endothelial cells expressing WT or DN EGFR were isolated as described. Endothelial cells were cultured in medium containing Endothelial Cell Growth Supplement (ECGS; Sigma-Aldrich, St Louis, MO). Mammalian cells were infected with tachyzoites of the RH or PTG stains of T. gondii; RH strain was used unless otherwise indicated. Cells were fixed at 2 hours or 24 hours followed by staining using Hema 3 Manual Staining System (Fisherbrand, Hampton, NH). At least 100 to 200 cells per monolayer were counted by examining a minimum of 5 random areas per monolayer. The percentage of infected cells, tachyzoites and vacuoles per 100 cells, and tachyzoites per vacuole were counted using light microscopy. Three independent experiments were performed. Saracatinib, Gefitinib (LC Laboratories, Woburn, MA) and lysosomal inhibitors leupeptin and pepstatin (10 μM; Millipore Sigma, Burlington, MA) were used in specified experiments. Each cell monolayer was generated and infected independently.

[5] = CHO cells transfected with CA Akt, 1 μM, 24 h
[6] = CHO cells transfected with WT Akt, 1 μM, 24 h
[7] = EGFR+ CHO cells, RH T. gondii, indicated concentrations, 24 h

With `CN1CCN(CCOc2cc(OC3CCOCC3)c3c(Nc4c(Cl)ccc5c4OCO5)ncnc3c2)CC1` [Saracatinib, N-(5-chloro-1,3-benzodioxol-4-yl)-7-(2-(4-methylpiperazin-1-yl)ethoxy)-5-(tetrahydro-2H-pyran-4-yloxy)quinazolin-4-amine] as the molecule, how does the “accumulation of LC3 around the parasites” value (LC3) read?
Its value is “induced accumulation”.

What about the “ocular and cerebral histopathology” value (ME49 T. gondii; Becn 1+/+ mice) of the same molecule?
The value was “improvement”.

What about the parasite load (ME49 T. gondii; Becn 1+/+ mice) of the same molecule?
The parasite load was “improvement”.

And the “response of histopathology and parasite loads” value (ME49 T. gondii; autophagy-deficient Becn 1+/- mice)?
Its value is “did not respond”.

And the “PTEN phosphorylation at Tyr240, Ser380 and Thr382/383” value (PTEN [1])?
The value was “reduced”.

And the “activity of Lek and Fyn in T cells” value (Lek and Fyn in T cells)?
Its value is “did not inhibit”.

What about the “T cell expansion and IFN-γ production following antigenic stimulation” value (Lek and Fyn in T cells; low doses, previously primed T cells, in vitro and in vivo) of the same molecule?
Its value is “increased T cell expansion and IFN-γ production”.

And the “association of PTEN to the PVM” value (PTEN [2])?
Its value is “co-expression of PTEN and GRA7”.

And the “accumulation of phospho-S473 Akt around intracellular parasites” value (phospho-S473 Akt)?
The value was “inhibited”.

And the “morphology of bradyzoites in remaining cysts” value (EGS T. gondii cysts)?
Its value is “altered morphology”.

And the “reduction in the number of cysts” value (EGS T. gondii cysts)?
The value was ~60%.

And the “Y199 phosphorylation of PI3K” value (PI3K)?
The value was “inhibited”.

And the “parasite invasion of host cells” value (T. gondii [3])?
The value was “did not affect”.

And the toxoplasmacidal activity (T. gondii [4]; 0.3 μM)?
Its toxoplasmacidal activity is “significantly reduced”.

What about the toxoplasmacidal activity (T. gondii [4]; 1 μM, infected host cells) of the same molecule?
The toxoplasmacidal activity was “kills T. gondii”.

And the toxoplasmacidal activity (T. gondii [4]; CHO cells infected with type I (RH) or Type II (PTG) strains, 1 μM, 2 h and 24 h)?
The toxoplasmacidal activity was “toxoplasmacidal activity”.

And the “effects on infected cells and tachyzoites per 100 cells compared with Gefitinib” value (T. gondii [4]; CHO cells stably transfected to express EGFR, 24 h)?
Its value is “more striking than the effects of Gefitinib”.

What about the “number of tachyzoites per 100 cells” value (T. gondii [4]; [5]) of the same molecule?
Its value is “no reduction”.

What about the percentage of infection (T. gondii [4]; [5]) of the same molecule?
Its percentage of infection is “no reduction”.

And the “number of tachyzoites per 100 cells” value (T. gondii [4]; [6])?
The value was “reduced”.

And the “percentage of infected cells” value (T. gondii [4]; [6])?
The value was “reduced”.

What about the “parasite replication (tachyzoites per vacuole)” value (T. gondii [4]; CHO cells, 1 μM, 24 hours) of the same molecule?
Its value is “did not affect”.

What about the “killing of T. gondii in cells made deficient in PTEN” value (T. gondii [4]; CHO cells, PTEN siRNA, 24 h) of the same molecule?
Its value is “no longer able to kill T. gondii”.

And the “percentage of infected cells” value (T. gondii [4]; [7])?
The value was “dose-dependent significant decrease”.

What about the “tachyzoites per 100 cells” value (T. gondii [4]; [7]) of the same molecule?
The value was “dose-dependent significant decrease”.

What about the “anti-T. gondii activity in ULK1-deficient cells” value (T. gondii [4]; ULK1 siRNA, CHO and brain endothelial cells, 24 h) of the same molecule?
Its value is “unable to exhibit anti-T. gondii activity”.

And the “anti-T. gondii activity in presence of Leupeptin and Pepstatin A” value (T. gondii [4]; lysosomal inhibitors 10 μM added post-infection)?
The value was “ablated”.

What about the “toxoplasmacidal activity in cells made deficient in Src” value (T. gondii [4]; mHEVc cells transduced with Src shRNA, 1 μM) of the same molecule?
Its value is “no toxoplasmacidal activity was detected”.
